Source: patent US11752127B2, “Methods and compositions for treatment of anxiety in animals” (CANOPY GROWTH CORPORATION, priority 2019, dated 2023)

How the values were obtained:
[1] = Blood CBD and 7-COOH-CBD levels pre- and post-car ride (mass spectrometry); format: in vivo, Beagle dogs
Method: (§1) Anxiety behavioral data measures were recorded, as was serum cortisol levels (an anxiety/stress-related biomarker), heart rate and blood cannabidiol content. Subjects were dosed once during each arm, approximately four (4) hours prior to the car ride test. Blood samples for measurements of cortisol and CBD were taken on two occasions during each arm. The first was on day 1, a no treatment day. The second was within 10 minutes (±2 minutes) following the car ride. Both blood samples were taken as closely as possible to the same time of day. Heart rate was continuously measured during the car ride. There were seven days of washout between treatment days. For the sake of scheduling, the 16 dogs were tested in two cohorts, with eight (8) dogs tested per cohort day. The test schedule that followed is outlined in Table 2.
Blood was collected for health profiling on day −8 and 2 mL and was placed into each a potassium oxalate/sodium fluoride, SST and K2EDTA tube. Whole blood collections for the purpose of cortisol and cannabidiol analysis were taken on eight occasions. Four (4) ml blood samples were collected from a suitable vein according to standard operating procedure for baseline 1 day prior to the car and 10 minutes (±2 minutes) after each car ride for cortisol and cannabidiol analysis. Prior to the baseline sample, subjects were placed in a quiet metabolic cage for 30 minutes (±2 minutes) for a more accurate reading of cortisol at rest. Two (2) ml blood were placed into a 2 ml SST tube and allowed to set until clotted. Serum was separated by centrifugation (2800-3200 rpm for 10 minutes at room temperature) and removed into a new serum blood tube. One aliquot of serum (0.5 ml) was placed into a cryovial and stored at approximately −80° C. for future analysis as necessary. […] Samples were analysed by mass spectrometry for the presence of cannabidiols and in particular CBD.
Post-car ride CBD levels were analyzed as a function of Dose using non-parametric analysis of variance.
Pre-car ride CBD levels were analyzed as a function of previous Dose using non-parametric analysis of variance. […]

[2] = tested on: thunderstorm noise-induced model of anxiety; assay: Thunderstorm noise-induced model of anxiety after chronic (28-day) CBD administration; format: in vivo, dogs
Method: The present study was conducted to evaluate the potential antianxiety effects of CBD after chronic administration using a thunderstorm model of anxiety. A placebo-controlled 28-day CBD dosing, behavioral and safety study was conducted in which the anti-anxiety behavioral effects of chronic CBD were evaluated after 7 and 21 days of CBD administration. Anxiety-related behavioral assessments were conducted using a thunderstorm noise-induced model of anxiety. Four different doses of CBD isolate (1, 2, 4 and 12 mg CBD/kg dog's body weight) were administered orally, as a liquid, once a day to fasted dogs. The primary anti-anxiety measures included blood cortisol levels, heart rate, distance traveled, head movements, global anxiety and scanning behavior.

[3] = tested on: noise-induced model of fear and anxiety; assay: Noise-induced (thunderstorm) model of fear and anxiety in dogs, single dose; format: in vivo, Beagle dogs
Method: A Noise-Induced Model for fear and anxiety was used to assess the anxiolytic properties of a cannabidiol formulation on dog subjects. An objective of this study is to determine the anxiolytic effectiveness of an orally dosed CBD enriched cannabinoid formulation at three dose levels (25 mg/kg, 12 mg/kg, and 4 mg/kg) as compared to a placebo control in a noise-induced model of fear and anxiety.
A preliminary health screen including veterinary examinations and CBC/clinical chemistry blood work analysis was first used to select thirty-two (32) Beagle dogs for the Baseline Screening phase of this study. […] A four-arm Williams design was used, with four treatment groups of 4 animals per group. Subjects were allocated to the treatment groups (n=4) balanced for sex, serum cortisol, and behavioural (activity) response. On Days 4, 11, 18, and 25 (n=16), dogs were tested on the thunderstorm procedure after administration of one of three dose levels of test article or placebo. Anxiety was assessed by both live monitoring of specific behaviours and through post-trial monitoring of recorded video files, by continuous recording of heart rate during the test, and by analyzing serum cortisol levels after the test. Subjects were dosed once during each arm of the study, approximately 4 hours prior to the thunderstorm test. Blood was taken twice during each arm of the study including baseline phase; once for the purpose of determining resting cortisol levels, collected two days before thunderstorm procedures, and once for the purpose of determining post-thunderstorm cortisol levels as well as blood levels CBD and 7-COOH-CBD, collected 5 minutes (±2 minutes) following the test. Both blood collections were taken at about same time of day. There was a 6-day washout period between treatment days for all subjects.
On the day of testing, each group received a single dose of their assigned treatment according to Table 7 followed by a 6-day washout period prior to the next assessment Animals were dosed 4 hours (±10 minutes) prior to each thunderstorm assessment, at the same time of day on each dosing day. Subjects received either placebo (MCT oil) or CBD extract diluted to the correct concentration of either 4, 12 or 25 mg/kg with appropriate volume of MCT oil to a final volume of 4 mL for each dose. The test article was administered orally by syringe with attention to complete delivery and retention of the intended dose according to standard operating procedures. In the event that a subject vomited or regurgitated within the first 30 minutes of administration, the product was re-administered and time of re-dose was recorded. […]
The thunderstorm test was performed on Study Day −5, 4, 11, 18, and 25; this took place in the open field arena. During the 9-minute task, the first three minutes was designated as the pre-thunder interval, during which the dogs were allowed to freely explore the room in the absence of any external stimuli. During minutes 4-6 (thunder interval) a recorded thunderstorm track was played over a stereo system at approximately 105 dB. Animal behaviour was audio and video recorded for a total of 9 minutes and the following parameters assessed:
1. Distance travelled (m): the distance the animal moves within the room will be tracked and recorded in meters.
2. […] All other behaviours were considered “active” behaviours.
No stimuli were provided over the last three minutes (minutes 7-9). All behavioural parameters were measured as described for the open field test. Video files of each session were recorded to DVD and archived with the study files. […]

[4] = tested on: car ride model of fear and anxiety; assay: Car-ride model of fear and anxiety in dogs (10-minute car ride); format: in vivo, Beagle dogs; conditions: for Cortisol response to car ride: differed significantly from baseline
Method: A Car-Ride Model for fear and anxiety was used to assess the anxiolytic properties of a cannabidiol formulation on dog subjects. One of the objectives of this study was to determine the anxiolytic effectiveness of orally dosed CBD-enriched cannabidiol formulation at three dose levels, namely at: 4 mg/kg CBD; 12 mg/kg CBD; and 25 mg/kg CBD as compared to a placebo control in a car ride model of fear and anxiety.
Enrollment into the study was based on the subject's baseline activity response to a car ride. Twenty-four (24) Beagle Dogs were screened for car-ride induced elevation of blood cortisol. The initial screening occurred over a 10-day period. Sixteen of the 24 dogs were selected to be used in the subsequent efficacy trial. The schedule of operations for the baseline screen is outlined in Table 1.
The subsequent dose-finding efficacy trial was a blinded pre-clinical trial with sixteen (16) dogs. Dogs were allocated to four treatment groups each containing four (4) dogs based on the baseline response to the car-ride model. In the car-ride model, the dogs were placed in a travel crate secured in the back of a transport vehicle. Anxiety was assessed by monitoring behavior and heart rate during the car ride, and by blood cortisol measures after the car ride. A Williams design was used in which 3 dose levels of the drug and a placebo control were evaluated, with every dog being tested on every condition. Thus, the study had four cycles: four (4) groups of four (4) dogs each, with two (2) males and two (2) females per group, were given four (4) cycles of either one of three increasing doses of a cannabidiol-enriched liquid formulation or the vehicle (medium chain triglyceride solution without cannabidiol), each in a volume of 4 mL. Actives or placebo were administered on the fourth day of each cycle, four (4) hours (±15 minutes) before exposure to a 10-minute car ride in a controlled setting. Each dosing cycle was seven (7) days, so there were seven (7) days between doses.
as §1
Treatment conditions as follows: High Dose: 25 mg/kg CBD; Medium Dose: 12 mg/kg CBD; Low Dose: 4 mg/kg CBD; Placebo control: MCT (Medium Chain Triglyceride) solution. The animals were handled and cared for as similarly as possible throughout the study. The study used a Williams design. The experimental unit were one individual dog and the number of dogs per treatment sequence was four (4), each containing two (2) males and two (2) females.
The study was a blinded pre-clinical trial carried out in a standardized environment. Sixteen (16) dogs (8 males and 8 females) were included in the study. A Williams design, in which all test subjects receive all three dosages and one placebo were used. Four (4) groups of four (4) dogs each, with two (2) males and two (2) females per group, will be given four (4) cycles of either one of three increasing doses of a Cannabidiol-enriched liquid formulation or the vehicle (medium chain triglyceride solution without cannabidiol), each in a volume of 4 mL. Actives or placebo were administered on the fourth day of each cycle, four (4) hours (±15 minutes) before exposure to a 10-minute car ride. […]

[5] = Phase 1, 12 mg/kg CBD oral, n=4 dogs
[6] = Phase 1, 25 mg/kg CBD oral, n=4 dogs
[7] = all four phases combined, 25 mg/kg CBD oral, n=16 dogs, p=0.05

C=C(C)[C@@H]1CCC(C(=O)O)=C[C@H]1c1c(O)cc(CCCCC)cc1O [7-COOH-CBD]
7-COOH-CBD levels across the 4 dose levels ([1]; post-car ride, repeated measures ANOVA): highly significant effect of dose

C=C(C)[C@@H]1CCC(C)=C[C@H]1c1c(O)cc(CCCCC)cc1O [CBD, cannabidiol]
Cortisol, day 21 vs day 7 ([2]; 1 and 2 mg CBD/kg oral once a day): greater decrease in cortisol on day 21 than day 7
Visual scanning ([2]; Day 7, 1 mg/kg): most reduced
Global Anxiety Scores during thunder-noise ([2]; after 7 and 21 days of treatment, all groups): decreased
Thunderstorm-induced body movements ([2]; chronic CBD administration): generally decreased
Heart rate ([2]; chronic CBD treatment 1, 2, 4, 12 mg/kg oral once a day): not affected
Global Anxiety Scores during thunder-noise, group with greatest decrease ([2]; day 7, 2 mg/kg): greatest decreases
Head movements ([2]; day 7, two lowest CBD treatment groups (1 and 2 mg/kg)): decreased by day 7
Global Anxiety Scores during thunder-noise, groups with greatest decrease ([2]; day 21, 1, 2 and 4 mg/kg): greatest decreases
Visual scanning ([2]; day 21, 1 and 2 mg/kg): most reduced
Head movements ([2]; day 21, all treatment groups): decline in head movements
Cortisol ([2]; lowest 3 doses (1, 2, 4 mg/kg) oral once a day, days 7 and 21): decline in cortisol
Anti-anxiety effects (stress biomarker, body movements, visual scanning, global anxiety scores) ([2]; three lower CBD doses (1, 2, 4 mg/kg) oral once a day): observable anti-anxiety effects
Distance travelled post-thunder (minutes 7-9), placebo vs CBD ([3]; 25 mg/kg oral 4 h before test, p=0.0445, LMM with treatment and order): significantly larger with placebo than 25 mg/kg
Inactivity frequency post-thunder, placebo vs CBD ([3]; 25 mg/kg oral, p=0.0245, LMM with treatment and order): significantly smaller with placebo than 25 mg/kg
Activity during minutes 1-3 of conditioned anxiety testing ([3]; CBD 4, 12, 25 mg/kg vs placebo): no significant differences
Distance travelled during the 3-minute post-thunder interval (mean±SD) [3, 5]: 3.9±3.9 m
Reduction of distance travelled during the 3-minute post-thunder interval vs placebo [3, 5]: 72%
Distance travelled during the 3-minute post-thunder interval (mean±SD) [3, 6]: 5.5±4.0 m
Distance travelled during the 3-minute thunderstorm noise (mean±SD) [3, 6]: 17.0±8.1 m
Reduction of distance travelled during the 3-minute post-thunder interval vs placebo [3, 6]: 61%
Reduction of distance travelled during the 3-minute thunderstorm noise vs placebo [3, 6]: 29%
Distance travelled during the 3-minute post-thunder interval (mean±SD) [3, 7]: 3.5±3.9 m
Reduction of distance travelled during the 3-minute post-thunder interval vs placebo [3, 7]: 65%
Inactivity, effect of dose ([3]; repeated measures ANOVA, pre-thunder, thunder, post-thunder, p value for dose effect 0.762): no other significant main effects or interactions
Dogs that lay down during the 10-minute car ride ([4]; Phase 1, 2 of 4 dogs at each of 4, 12, or 25 mg/kg CBD oral, placebo 0 of 4): 50%
Number of dogs across the CBD treatments who lay down during the car ride ([4]; Phase 1, CBD 4, 12, 25 mg/kg combined, placebo none of 4): 6 of 12 dogs
Mean heart rate, effect of treatment ([4]; baseline, placebo, 4, 12 and 25 mg/kg oral, pre-test, min 1-5, min 5-10 of car ride, repeated measures ANOVA): no other significant main effects or interactions
Post-car ride cortisol levels in female dogs ([4]; female dogs, CBD 4, 12, 25 mg/kg oral 4 h before car ride (FIG. 11)): decrease in cortisol levels
Cortisol response to car ride ([4]; high dose 25 mg/kg CBD oral): more effective in reducing the cortisol response than the placebo and low dose treatments
Cortisol response to car ride ([4]; medium dose 12 mg/kg CBD oral): more effective in reducing the cortisol response than the placebo and low dose treatments
Pre-car ride CBD levels as a function of previous dose ([1]; 7 days after previous dose, repeated measures ANOVA, 0.02 level): Previous dose effect was significant
Post-car ride CBD levels as a function of dose ([1]; oral 4, 12, 25 mg/kg CBD or placebo 4 h before car ride, non-parametric analysis of variance, p=0.0000): highly significant dose effect
